Values after ≈ are worked out from the molar mass of the structure shown. Read-outs that look alike come from different tables or passages of the source.
Key:
S. aureus Mu50 = assay: MIC, microdilution in CAMHB 24 h; assay type: cell-based, Staphylococcus aureus; conditions: for MIC: Staphylococcus aureus
S. aureus CF1A-L = assay: MIC, microdilution in CAMHB 24 h; assay type: cell-based, Staphylococcus aureus; conditions: CF1A-L; for MIC: Staphylococcus aureus, CF1AL
S. aureus CF2A-L = assay: MIC, microdilution in CAMHB 24 h; assay type: cell-based; conditions: CF2A-L; for MIC: Staphylococcus aureus, CF2AL
S. aureus Sa220c = assay: MIC, microdilution in CAMHB 24 h; assay type: cell-based, Staphylococcus aureus; conditions: Sa220c; for MIC: Staphylococcus aureus
S. aureus CF7A-L = assay: MIC, microdilution in CAMHB 24 h; assay type: cell-based, Staphylococcus aureus; conditions: CF7A-L; for MIC: Staphylococcus aureus
S. aureus ATCC BAA-41 = assay: MIC, microdilution in CAMHB 24 h; assay type: cell-based, Staphylococcus aureus; conditions: for MIC: Staphylococcus aureus
S. aureus ATCC 43300 = assay: MIC, microdilution in CAMHB 24 h; assay type: cell-based, Staphylococcus aureus; conditions: ATCC 43300; for MIC: Staphylococcus aureus
S. aureus SHY97-3906 = assay: MIC, microdilution in CAMHB 24 h; assay type: cell-based, Staphylococcus aureus; conditions: for MIC: Staphylococcus aureus, SHY973906
S. aureus CF07-L = assay: MIC, microdilution in CAMHB 24 h; assay type: cell-based, Staphylococcus aureus; conditions: CF07-L; for MIC: Staphylococcus aureus, CF07L
S. aureus CF9A-L = assay: MIC, microdilution in CAMHB 24 h; assay type: cell-based, Staphylococcus aureus; conditions: CF9A-L; for MIC: Staphylococcus aureus
S. aureus Newman = assay: MIC, microdilution in CAMHB 24 h; assay type: cell-based, Staphylococcus aureus; conditions: Newman; for MIC: Staphylococcus aureus
S. aureus ATCC 29213 = assay: Checkerboard assay, aminoglycoside and tomatidine; assay type: cell-based, Staphylococcus aureus; conditions: for MIC: Staphylococcus aureus, ATCC29213, checkerboard
Method: This checkerboard protocol (Eliopoulos and Moellering, 1996) was conducted by a microdilution method similar to that use for standard MICs determination. In 96 wells plates, antibiotics were loaded at a 4× concentration (where X is the maximal tested concentration) in well A1 and at a 2× concentration in the others wells of the column 1. Antibiotics were serially diluted 1:1 from the column 2 to column 10. […] Wells A12, B12, […] are positive untreated controls whereas wells […] are negative non-inoculated controls. […] The FIC index was calculated as follow (Eliopoulos and Moellering, 1996): FIC […]/MICB, where A and B are MICs of compounds A and B in combination and where MICA and MICB are the MICs of compound A alone and of compound B alone, respectively, and FICA and FICB are the FICs of compound A and of compound B, respectively.

S. aureus Newbould = assay: MIC, microdilution in CAMHB 24 h; assay type: cell-based, Staphylococcus aureus; conditions: Newbould; for MIC: Staphylococcus aureus
S. aureus CF35A-L = assay: MIC, microdilution in CAMHB 24 h; assay type: cell-based, Staphylococcus aureus; conditions: CF35A-L; for MIC: Staphylococcus aureus
S. aureus 8325-4 = assay: MIC, microdilution in CAMHB 24 h; assay type: cell-based, Staphylococcus aureus; conditions: 8325-4; for MIC: Staphylococcus aureus, 83254
S. aureus CF8E-L = assay: MIC, microdilution in CAMHB 24 h; assay type: cell-based, Staphylococcus aureus; conditions: CF8E-L; for MIC: Staphylococcus aureus, CF8EL
S. aureus CF4B-L = assay: MIC, microdilution in CAMHB 24 h; assay type: cell-based, Staphylococcus aureus; conditions: CF4B-L; for MIC: Staphylococcus aureus, CF4BL
S. aureus N315 = assay: microbe, parasite or virus in culture; assay type: cell-based, Staphylococcus aureus; conditions: for MIC: Staphylococcus aureus
[1] = 8 μg/ml of tomatidine, read-out: MIC +TO
[2] = Human (CF lungs), read-out: MIC
[3] = absence of tomatidine, read-out: MIC −TO
[4] = Human (CF lungs), MRSA, read-out: MIC

NC[C@H]1O[C@H](O[C@H]2[C@H](O)[C@@H](O[C@H]3O[C@H](CO)[C@@H](O)[C@H](N)[C@H]3O)[C@H](N)C[C@@H]2N)[C@H](O)[C@@H](O)[C@@H]1O [Kanamycin, kanamycin]
Fold (−TO/+TO) (S. aureus Mu50; Mu50, 8 μg/ml of tomatidine): >2-4 fold
MIC (S. aureus Mu50; Mu50, aac(6′)-aph(2″), ant(4′)-Ia, 8 μg/ml of tomatidine, read-out: MIC +TO): 256 to 512 µg/mL (≈ 528 to 1060 µM)
MIC (S. aureus Mu50; Mu50, aac(6′)-aph(2″), ant(4′)-Ia, absence of tomatidine, read-out: MIC −TO): > 1020 µg/mL
MIC (S. aureus Mu50; Mu50, Human (SSTI), MRSA, VISA, read-out: MIC): > 1020 µg/mL
Fold (−TO/+TO) (S. aureus CF1A-L; 8 μg/ml of tomatidine): 8 fold
MIC (S. aureus CF1A-L; [1]): 0.5 µg/mL (≈ 1.03 µM)
MIC (S. aureus CF1A-L; [2]): 4 µg/mL (≈ 8.26 µM)
MIC (S. aureus CF1A-L; [3]): 4 µg/mL (≈ 8.26 µM)
Fold (−TO/+TO) (S. aureus CF2A-L; 8 μg/ml of tomatidine): 8 fold
MIC (S. aureus CF2A-L; [1]): 0.5 µg/mL (≈ 1.03 µM)
MIC (S. aureus CF2A-L; [2]): 4 µg/mL (≈ 8.26 µM)
MIC (S. aureus CF2A-L; [3]): 4 µg/mL (≈ 8.26 µM)
Fold (−TO/+TO) (S. aureus Sa220c; 8 μg/ml of tomatidine): 8 fold
MIC (S. aureus Sa220c; [1]): 0.5 µg/mL (≈ 1.03 µM)
MIC (S. aureus Sa220c; Human (SSTI), MRSA, read-out: MIC): 4 µg/mL (≈ 8.26 µM)
MIC (S. aureus Sa220c; [3]): 4 µg/mL (≈ 8.26 µM)
Fold (−TO/+TO) (S. aureus CF7A-L; 8 μg/ml of tomatidine): 2-4 fold
MIC (S. aureus CF7A-L; CF7AL, ant(4′)-Ia, 8 μg/ml of tomatidine, read-out: MIC +TO): 64 to 256 µg/mL (≈ 132 to 528 µM)
MIC (S. aureus CF7A-L; CF7AL, ant(4′)-Ia, absence of tomatidine, read-out: MIC −TO): 256 to 512 µg/mL (≈ 528 to 1060 µM)
MIC (S. aureus CF7A-L; [4]): 256 to 512 µg/mL (≈ 528 to 1060 µM)
Fold (−TO/+TO) (S. aureus ATCC BAA-41; ATCC BAA-41, 8 μg/ml of tomatidine): 4-8 fold
MIC (S. aureus ATCC BAA-41; ATCC BAA-41 / MRSA, ATCC BAA-41, Human (HA), MRSA, read-out: MIC): 256 to 512 µg/mL (≈ 528 to 1060 µM)
MIC (S. aureus ATCC BAA-41; ATCCBAA41, ATCC BAA-41, ant(4′)-Ia, 8 μg/ml of tomatidine, read-out: MIC +TO): 64 µg/mL (≈ 132 µM)
MIC (S. aureus ATCC BAA-41; ATCCBAA41, ATCC BAA-41, ant(4′)-Ia, absence of tomatidine, read-out: MIC −TO): 256 to 512 µg/mL (≈ 528 to 1060 µM)
Fold (−TO/+TO) (S. aureus ATCC 43300; 8 μg/ml of tomatidine): 2-4 fold
MIC (S. aureus ATCC 43300; ATCC 43300 / MRSA, Human (HA), MRSA, read-out: MIC): 512 to 1020 µg/mL (≈ 1060 to 2110 µM)
MIC (S. aureus ATCC 43300; ATCC43300, 8 μg/ml of tomatidine, read-out: MIC +TO): 256 µg/mL (≈ 528 µM)
MIC (S. aureus ATCC 43300; ATCC43300, absence of tomatidine, read-out: MIC −TO): 512 to 1020 µg/mL (≈ 1060 to 2110 µM)
Fold (−TO/+TO) (S. aureus SHY97-3906; SHY-3906, 8 μg/ml of tomatidine): 4 fold
MIC (S. aureus SHY97-3906; SHY97-3906, Cow (mastitis), read-out: MIC): 2 µg/mL (≈ 4.13 µM)
MIC (S. aureus SHY97-3906; SHY-3906, 8 μg/ml of tomatidine, read-out: MIC +TO): 0.5 µg/mL (≈ 1.03 µM)
MIC (S. aureus SHY97-3906; SHY-3906, absence of tomatidine, read-out: MIC −TO): 2 µg/mL (≈ 4.13 µM)
Fold (−TO/+TO) (S. aureus CF07-L; 8 μg/ml of tomatidine): 4-8 fold
MIC (S. aureus CF07-L; [1]): 0.5 to 1 µg/mL (≈ 1.03 to 2.06 µM)
MIC (S. aureus CF07-L; [2]): 4 µg/mL (≈ 8.26 µM)
MIC (S. aureus CF07-L; [3]): 4 µg/mL (≈ 8.26 µM)
Fold (−TO/+TO) (S. aureus CF9A-L; 8 μg/ml of tomatidine): 1-2 fold
MIC (S. aureus CF9A-L; CF9AL, ant(4′)-Ia, 8 μg/ml of tomatidine, read-out: MIC +TO): 128 to 256 µg/mL (≈ 264 to 528 µM)
MIC (S. aureus CF9A-L; CF9AL, ant(4′)-Ia, absence of tomatidine, read-out: MIC −TO): 256 µg/mL (≈ 528 µM)
MIC (S. aureus CF9A-L; [4]): 256 µg/mL (≈ 528 µM)
Fold (−TO/+TO) (S. aureus Newman; 8 μg/ml of tomatidine): 8 fold
MIC (S. aureus Newman; [1]): 0.5 µg/mL (≈ 1.03 µM)
MIC (S. aureus Newman; Human (Osteo), read-out: MIC): 4 µg/mL (≈ 8.26 µM)
MIC (S. aureus Newman; [3]): 4 µg/mL (≈ 8.26 µM)
MIC (S. aureus ATCC 29213; tomatidine 0 μg/ml): 2 to 4 µg/mL
MIC (S. aureus ATCC 29213; tomatidine 0.06 μg/ml): 2 µg/mL
MIC (S. aureus ATCC 29213; tomatidine 0.12 μg/ml): 0.5 to 1 µg/mL
MIC (S. aureus ATCC 29213; tomatidine 0.25 μg/ml): 0.5 µg/mL
MIC (S. aureus ATCC 29213; tomatidine 0.5 μg/ml): 0.5 µg/mL
MIC (S. aureus ATCC 29213; tomatidine 1 μg/ml): 0.5 to 1 µg/mL
MIC (S. aureus ATCC 29213; tomatidine 2 μg/ml): 0.25 to 0.5 µg/mL
MIC (S. aureus ATCC 29213; tomatidine 4 μg/ml): 0.5 µg/mL
MIC (S. aureus ATCC 29213; tomatidine 8 μg/ml): 0.5 µg/mL
FIC index (S. aureus ATCC 29213; aminoglycoside with tomatidine, tomatidine MIC considered 32 μg/ml, values overestimated): ≦0.193
Fold (−TO/+TO) (S. aureus Newbould; 8 μg/ml of tomatidine): 8 fold
MIC (S. aureus Newbould; [1]): 0.5 µg/mL (≈ 1.03 µM)
MIC (S. aureus Newbould; Cow (mastitis), read-out: MIC): 4 µg/mL (≈ 8.26 µM)
MIC (S. aureus Newbould; [3]): 4 µg/mL (≈ 8.26 µM)
Fold (−TO/+TO) (S. aureus CF35A-L; 8 μg/ml of tomatidine): 4 fold
MIC (S. aureus CF35A-L; CF35AL, 8 μg/ml of tomatidine, read-out: MIC +TO): 1 µg/mL (≈ 2.06 µM)
MIC (S. aureus CF35A-L; CF35AL, absence of tomatidine, read-out: MIC −TO): 4 µg/mL (≈ 8.26 µM)
MIC (S. aureus CF35A-L; [4]): 4 µg/mL (≈ 8.26 µM)
Fold (−TO/+TO) (S. aureus 8325-4; 8 μg/ml of tomatidine): 2-4 fold
MIC (S. aureus 8325-4; [1]): 0.5 to 4 µg/mL (≈ 1.03 to 8.26 µM)
MIC (S. aureus 8325-4; Laboratory strain, read-out: MIC): 2 to 8 µg/mL (≈ 4.13 to 16.5 µM)
MIC (S. aureus 8325-4; [3]): 2 to 8 µg/mL (≈ 4.13 to 16.5 µM)
Fold (−TO/+TO) (S. aureus CF8E-L; 8 μg/ml of tomatidine): 2-4 fold
MIC (S. aureus CF8E-L; [1]): 2 to 8 µg/mL (≈ 4.13 to 16.5 µM)
MIC (S. aureus CF8E-L; [2]): 16 µg/mL (≈ 33 µM)
MIC (S. aureus CF8E-L; [3]): 16 µg/mL (≈ 33 µM)
Fold (−TO/+TO) (S. aureus CF4B-L; 8 μg/ml of tomatidine): 8 fold
MIC (S. aureus CF4B-L; [1]): 0.5 µg/mL (≈ 1.03 µM)
MIC (S. aureus CF4B-L; [2]): 4 µg/mL (≈ 8.26 µM)
MIC (S. aureus CF4B-L; [3]): 4 µg/mL (≈ 8.26 µM)
Fold (−TO/+TO) (S. aureus N315; N315, 8 μg/ml of tomatidine): 4 fold
MIC (S. aureus N315; N315, read-out: MIC +TO): 64 µg/mL (≈ 132 µM)
MIC (S. aureus N315; N315, read-out: MIC −TO): 256 µg/mL (≈ 528 µM)

Reference: patent US9457033B2, “Steroid alkaloids and uses thereof as antimicrobial agents against electron transport-deficient microbes and as potentiators for antimicrobial agents against pathogenic bacteria” (priority 2011, dated 2016)
